Test results reported in patent US20180092908A1, “SMALL MOLECULE OXIDIZERS OF PDI AND THEIR USE” (THE TRUSTEES OF COLUMBIA UNIVERSITY IN THE CITY OF NEW YORK, priority 2015, published 2018).
In brackets after ≈: the same amount, converted by molar mass. Where two headings read alike, the source gives them in different places.

Columns and labels:
[1] = molecular target: T1, recombinant catalytic a domain of human PDI A1 (PDIa) (Homo sapiens, UniProt P07237); assay: Insulin aggregation assay (PDIa reductase activity); assay type: biochemical
T1 construct: made in house; host or cells: Escherichia coli BL21-Gold (DE3)
T1 sequence (P07237 with tags, fused parts or gaps): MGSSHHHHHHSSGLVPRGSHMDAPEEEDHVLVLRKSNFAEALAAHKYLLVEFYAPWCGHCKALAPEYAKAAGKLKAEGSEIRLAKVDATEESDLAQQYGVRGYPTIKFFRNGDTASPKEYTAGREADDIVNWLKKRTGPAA

cortical neurons = assay: Tau4R-induced neurodegeneration brain slice assay; assay type: cell-based; details: rat corticostriatal brain slice, tau4R transfection, 4 days
Procedure: Rat corticostriatal brain slice explants co-transfected with YFP and the tau isoform with 4 tubulin-binding repeats (Tau4R) were treated with LOC14, an analog of LOC14 “BIT fragment” (1,2,Benzisothiazol-3-one), or DMSO only for 4 days. Data are plotted as mean±SEM from one of five representative experiments. *Significant by ANOVA followed by Dunnett's post hoc comparison test at p<0.05.
Next, whether LOC14 could be neuroprotective in additional models of neurodegenerative diseases was explored. […] In this rat corticostriatal brain slice assay, cortical neuron degeneration is induced by biolistic transfection with tau, in this case a tau isoform with 4 tubulin-binding repeats (“tau4R”) which is implicated in frontotemporal dementias and more broadly in Alzheimer's disease.

plasma proteins = assay: Mouse plasma protein binding assay; assay type: in vitro ADME; details: mouse plasma
Procedure: (§1) A test compound at the concentration of 2000 ng/mL in plasma was added into the sample chamber, and a dialysis buffer phosphate-buffered saline (PBS) was added into the buffer chamber, covering the unit with sealing tape and incubating for 4 hours at 37° C. at approximately 100 rpm on an orbital shaker. The incubation samples were taken from both plasma and buffer chamber at the end of the incubation, and then samples were analyzed by LC-MS/MS. Protein binding and free fraction percentage were determined using peak area ratio of analyte to internal standard. Fraction bound percent was calculated as: % Bound=100*(Cplasma−CPBS)/Cplasma. The fraction recovered percent was calculated as: % Recovery=(VPBS*CPBS+Vplasma*Cplasma)/(Vplasma*Cspike) where VPBS is Volume of PBS, Vplasma is Volume of Plasma, CPBS is Drug concentration in PBS (Analyte/IS peak area ratio), Cplasma is Drug concentration in plasma (Analyte/IS peak area ratio), Cspike is Drug concentration in spiked plasma (Analyte/IS peak area ratio).

[2] = Mouse plasma protein binding assay; assay type: in vitro ADME; details: mouse; plasma, compound 2000 ng/mL, mean±SD (n=3)
Procedure: as §1

[3] = Mouse microsome stability assay; assay type: in vitro ADME; details: for half-life at 0.5 μM: mouse, liver microsomes, pH 7.4, mouse liver microsomes
Procedure: At 0, 5, 15, 30 and 45 minute intervals, an aliquot was taken and quenched with acetonitrile (ACN) containing internal standard. No-cofactor controls at 45 minutes were prepared. Following completion of the experimentation, the samples were analyzed by LC-MS/MS. […] C=initial×exp (−k×t). Intrinsic clearance (CLint) was calculated as liver clearance from the half-life using the following equation: CLint=k×(ml incubation/0.5 mg protein)×(52.5 mg protein/g liver). Results were reported as peak area ratios of analyte to internal standard. The intrinsic clearance (CLint) was determined from the first order elimination constant by non-linear regression. The microsome stability assay, plasma stability assay, and plasma protein binding assay were each performed by Alliance Pharma, Inc. (Malvern, Pa.).

PDIa = molecular target: T2, PDIa (Homo sapiens, UniProt P07237); assay: Size-exclusion buffer dialysis for reversibility of binding (fluorescence); details: PDIa 20 μM treated with LOC14 300 μM overnight, 10 kDa filter dialysis
T2 construct: made in house; host or cells: Escherichia coli BL21-Gold (DE3)
T2 sequence (P07237 with tags, fused parts or gaps): as above
Procedure: Prior to dialysis, fluorescence emission spectra were recorded from 315 nm-550 nm wavelength with excitation at 280 nm on a Tecan Infinite 200 microplate reader. Fluorescence readings were carried out in a 384-well low volume, black bottom plate. Each well contained 40 μl of either LOC14 (300 μM), PDIa (20 μM), or PDIa (20 μM) treated with LOC14 (300 μM) overnight. All samples were dissolved in buffer B (20 mM sodium phosphate buffer pH 7.8). After recording the initial fluorescence spectra, samples were then transferred to Amicon Ultra 10 kDa size exclusion filter spin columns for dialysis. […] This step was repeated three more times with fresh buffer B. 40 μl of the collected samples from the flow-through and the spin-column chamber were transferred to a new 384-well plate and the emission spectra recorded as described above.
To investigate the mode of binding further and to determine whether the binding was reversible or irreversible, the fluorescence of the LOC14-PDIa complex was analyzed before and after buffer dialysis. […] If LOC14 binds irreversibly to the protein, then the same fluorescence spectrum of the LOC14-PDIa complex would be seen before and after dialysis in the dialysis chamber and none in the buffer compartment, assuming the fluorescence of LOC14 was not dramatically altered upon binding. […]

physchem = details: organic solvent or mixture
[4] = mouse liver microsomes, compound 0.5 μM

With `O=C(C1CC1)N1CCN(Cn2sc3ccccc3c2=O)CC1` [LOC14, 2-((4-(cyclopropanecarbonyl)piperazin-1-yl)methyl)benzo[d]isothiazol-3(2H)-one] the “inhibition of PDIa enzymatic activity” value ([1]; compound 75 μM, PDIa 5 μM) was “almost completely inhibit”, the “inhibition of PDI's reduction of insulin without dilution” value ([1]; compound 750 μM) was “able to inhibit” and the “neuroprotection in tau-mediated neurodegeneration assay” value (cortical neurons) was “strongly and reproducibly neuroprotective”. The “binding to the plasma proteins” value (plasma proteins) was “low binding”, the recovery at 4 h, 2000 ng/mL [2] was 113.8 ± 0.76% and the intrinsic clearance value ([3]; mouse liver microsomes) was “less than 0.5 ml/min/g”. For the same molecule, the “Elimination rate constant (k)” value [3, 4] was 0.0016, the “Intrinsic Clearance (CLint), mL/min/g liver” value [3, 4] was 0.17 mL/min/g liver and the half-life at 0.5 μM ([3]; compound 0.5 μM, read-out: Half-life (t1/2)) was 7.31 h. For the same molecule, the half-life at 0.5 μM ([3]; read-out: half-life) was > 1.5 h, the “binding to PDIa reversible or irreversible” value (PDIa) was “reversible” and the solubility (physchem; DMSO) was 40 mg/mL (≈ 126 mM). The solubility (physchem; EtOH) was 20 mg/mL (≈ 63 mM), the solubility (physchem; MeOH) was 40 mg/mL (≈ 126 mM) and the solubility (physchem; NMP) was 80 mg/mL (≈ 252 mM).
